Reference: paper PMC3505660, “Application of Collagen-Model Triple-Helical Peptide-Amphiphiles for CD44-Targeted Drug Delivery Systems” (Journal of Drug Delivery, 2012)

Legend:
BJ foreskin fibroblasts = test: CellTiter-Glo Luminescent Cell Viability Assay (cytotoxicity), BJ; type: cell-based, human; conditions: BJ cells, [DOX] = 100 μM, 3 h exposure
From the text: (§1) The M14#5 and M14#11 human metastatic melanoma cell lines were generously provided by Dr. Barbara Mueller. The BJ foreskin fibroblasts […] were obtained from the American Type Culture Collection (ATCC) (Cat# CRL-2522). Cell media (Cat# MT10-013-CV) and trypan blue (Cat# ICN1691049) were obtained from Fisher Scientific or CellGro, and all reagents required for cell culture were purchased from Invitrogen. Cells were maintained in DMEM supplemented with 10% fetal bovine serum (Cat# 10437028), 50 units/mL penicillin, and 0.05 mg/mL streptomycin (Cat# 15140163). Cells were cultured with complete medium at 37°C in a humidified atmosphere of 5% CO2 in air. For all experiments cells were harvested from subconfluent (<80%) cultures using a trypsin-EDTA (Cat# 15400054) solution and then resuspended in fresh medium. Preparations of cells with a >90% viability, as determined by trypan blue exclusion, were used.
(§2) The cytotoxicity of all liposomal systems used in this study, as well as free DOX, on the cells was determined using the CellTiter-Glo Luminescent Cell Viability Assay. The M14#5, M14#11, and BJ cells were plated on 96-well tissue cultured treated plates corning at a density of 5 × 10^3 cells per well and incubated for 24 h at 37°C and 5% CO2. The culture medium was then replaced with 100 μL of medium containing various concentrations of each liposomal system or free DOX. […]

[1] = parameters: method as in PMID 8313389, PMID 7865538; conditions: cited from earlier work
From the text: Potential DOX delivery in vivo, however, is quite different than in vitro when one considers circulation times. […] In ...

[2] = test system: M14#5 human metastatic melanoma cells; test: CellTiter-Glo Luminescent Cell Viability Assay (cytotoxicity), M14#5; type: cell-based; conditions: M14#5 cells, [DOX] = 100 μM, 3 h exposure
From the text: as §1, §2

For `COc1cccc2c1C(=O)c1c(O)c3c(c(O)c1C2=O)C[C@@](O)(C(=O)CO)C[C@@H]3O[C@H]1C[C@H](N)[C@H](O)[C@H](C)O1` [free DOX, doxorubicin], the cell viability (BJ foreskin fibroblasts) is given as 50–60%, the “clearance of free DOX relative to DOX encapsulated within PEGylated liposomes” value [1] is given as 450 times faster and the cell viability [2] is given as 50–60%.
